Reference: the supplement of paper PMC9663587

Tests used:
[1] = compound: CC(=O)c1c(C)c2cnc(Nc3ccc(N4CCNCC4)cn3)nc2n(C2CCCC2)c1=O; test: increase in dead-cell fraction, 72 h; higher = more death;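 further: breast cancer cell lines in 384-well plates, stained with Hoechst plus LIVE/DEAD far red dye and imaged, cells above an LDR intensity threshold counted dead, Hoechst-negative corpses included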
[2] = compound: CCc1cnn2c(NCc3ccc[n+]([O-])c3)cc(N3CCCC[C@H]3CCO)nc12; test: as above
[3] = compound: CCN1CCN(Cc2ccc(Nc3ncc(F)c(-c4cc(F)c5nc(C)n(C(C)C)c5c4)n3)nc2)CC1; test: as above
[4] = compound: CCOc1cc2ncc(C#N)c(Nc3ccc(OCc4ccccn4)c(Cl)c3)c2cc1NC(=O)/C=C/CN(C)C [Neratinib/HKI272]; test: as above
[5] = compound: CC(=O)c1c(C)c2cnc(Nc3ccc(N4CCN(CCOCCOCCOCCNC(=O)COc5cccc6c5C(=O)N(C5CCC(=O)NC5=O)C6=O)CC4)cn3)nc2n(C2CCCC2)c1=O [BSJ-03-123]; test: as above
[6] = compound: CN(C)C(=O)c1cc2cnc(Nc3ccc(N4CCNCC4)cn3)nc2n1C1CCCC1 [LEE011/Ribociclib]; test: as above
[7] = compound: CN1CC[C@H](c2c(O)cc(O)c3c(=O)cc(-c4ccccc4Cl)oc23)[C@H](O)C1 [Flavopiridol]; test: as above
[8] = compound: CN(C)C/C=C/C(=O)Nc1ccc(C(=O)Nc2cccc(Nc3ncc(Cl)c(-c4c[nH]c5ccccc45)n3)c2)cc1 [THZ1]; test: as above
[9] = compound: COc1ccc2c(c1)[C@]1(C[C@H]1c1ccc3c(/C=C/c4ccc(CN5C[C@@H](C)O[C@@H](C)C5)cc4)n[nH]c3c1)C(=O)N2
[10] = compound: O=C(CCCCCCC(=O)Nc1ccccc1)NO [Vorinostat]
[11] = compound: CNC(=O)c1cccc(-c2ccc3c(N4CCOC[C@@H]4C)nc(N4CCOC[C@@H]4C)nc3n2)c1 [AZD2014]
[12] = compound: C[C@@H]1COCCN1c1cc(C2([S@](C)(=N)=O)CC2)nc(-c2cc[nH]c3nccc2-3)n1 [AZD6738]
[13] = compound: CCN1CCN(Cc2ccc(Nc3ncc(F)c(-c4cc(F)c5nc(C)n(C(C)C)c5c4)n3)nc2)CC1
[14] = compound: CN(C)C/C=C/C(=O)Nc1ccc(O[C@@H]2CCC[C@@H](Nc3ncc(Cl)c(-c4c[nH]c5ccccc45)n3)C2)cc1 [BSJ-01-175]
[15] = compound: CC(C)NC[C@@H](C(=O)N1CCN(c2ncnc3c2[C@H](C)C[C@H]3O)CC1)c1ccc(Cl)cc1 [Ipatasertib/GDC0068]
[16] = compound: CCC1=CN=CN=C1N2CCN(CC2)CC3=NC4=C(N3)C=C(C=C4)C(F)(F)F
[17] = compound: O=C1NC(=O)[C@@H](c2cn3c4c(cccc24)CCC3)[C@@H]1c1c[nH]c2ccccc12 [Tivantinib/ARQ197]
[18] = compound: CC(=O)Nc1cccc(-n2c(=O)n(C3CC3)c(=O)c3c(Nc4ccc(I)cc4F)n(C)c(=O)c(C)c32)c1
[19] = compound: NC(=O)Nc1cc(-c2cccc(F)c2)sc1C(=O)N[C@H]1CCCNC1 [AZD7762]
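Wherever GR50, 72 h is given: breast cancer and non-malignant breast epithelial cell lines, Deep Dye Drop or Dye Drop imaging, nine half-log doses, GR normalized to time-zero plates and DMSO-only controls.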

Cell Line: HCC1937
- increase in dead-cell fraction ([1]; 0.0003162 µM): -0.0018
- increase in dead-cell fraction ([1]; 0.001 µM): -0.0051
- increase in dead-cell fraction ([1]; 0.003162 µM): 0.0021
- increase in dead-cell fraction ([1]; 0.01 µM): 0.0002
- increase in dead-cell fraction ([1]; 0.03162 µM): -0.0009
- increase in dead-cell fraction ([1]; 0.1 µM): -0.0009
- increase in dead-cell fraction ([1]; 0.3162 µM): -0.0038
- increase in dead-cell fraction ([1]; 1 µM): -0.0027
- increase in dead-cell fraction ([1]; 3.162 µM): -0.0018
- increase in dead-cell fraction ([2]; 0.0001 µM): 0.0021
- increase in dead-cell fraction ([2]; 0.0003162 µM): -0.0036
- increase in dead-cell fraction ([2]; 0.001 µM): 0.0015
- increase in dead-cell fraction ([2]; 0.003162 µM): -0.0021
- increase in dead-cell fraction ([2]; 0.01 µM): 0.0113
- increase in dead-cell fraction ([2]; 0.03162 µM): 0.156
- increase in dead-cell fraction ([2]; 0.1 µM): 0.192
- increase in dead-cell fraction ([2]; 0.3162 µM): 0.181
- increase in dead-cell fraction ([2]; 1 µM): 0.19
- increase in dead-cell fraction ([3]; 0.001 µM): -0.0017
- increase in dead-cell fraction ([3]; 0.003162 µM): -0.0029
- increase in dead-cell fraction ([3]; 0.01 µM): -0.0019
- increase in dead-cell fraction ([3]; 0.03162 µM): -0.0004
- increase in dead-cell fraction ([3]; 0.1 µM): -0.0064
- increase in dead-cell fraction ([3]; 0.3162 µM): -0.0073
- increase in dead-cell fraction ([3]; 1 µM): -0.0012
- increase in dead-cell fraction ([3]; 3.162 µM): 0.0025
- increase in dead-cell fraction ([3]; 10 µM): 0.0559
- increase in dead-cell fraction ([4]; 0.0003162 µM): 0.0017
- increase in dead-cell fraction ([4]; 0.001 µM): 0.0031
- increase in dead-cell fraction ([4]; 0.003162 µM): 0.0127
- increase in dead-cell fraction ([4]; 0.01 µM): 0.0186
- increase in dead-cell fraction ([4]; 0.03162 µM): 0.0314
- increase in dead-cell fraction ([4]; 0.1 µM): 0.0326
- increase in dead-cell fraction ([4]; 0.3162 µM): 0.0327
- increase in dead-cell fraction ([4]; 1 µM): 0.0368
- increase in dead-cell fraction ([4]; 3.162 µM): 0.0974
- increase in dead-cell fraction ([5]; 0.001 µM): 0.001
- increase in dead-cell fraction ([5]; 0.003162 µM): -0.0071
- increase in dead-cell fraction ([5]; 0.01 µM): 0.0079
- increase in dead-cell fraction ([5]; 0.03162 µM): 0
- increase in dead-cell fraction ([5]; 0.1 µM): 0.0032
- increase in dead-cell fraction ([5]; 0.3162 µM): -0.0022
- increase in dead-cell fraction ([5]; 1 µM): -0.0018
- increase in dead-cell fraction ([5]; 3.162 µM): -0.0018
- increase in dead-cell fraction ([5]; 10 µM): 0.0245
- increase in dead-cell fraction ([6]; 0.001 µM): -0.0088
- increase in dead-cell fraction ([6]; 0.003162 µM): -0.0054
- increase in dead-cell fraction ([6]; 0.01 µM): -0.0115
- increase in dead-cell fraction ([6]; 0.03162 µM): -0.0122
- increase in dead-cell fraction ([6]; 0.1 µM): -0.0012
- increase in dead-cell fraction ([6]; 0.3162 µM): -0.0035
- increase in dead-cell fraction ([6]; 1 µM): -0.0021
- increase in dead-cell fraction ([6]; 3.162 µM): -0.0077
- increase in dead-cell fraction ([6]; 10 µM): 0.0003
- increase in dead-cell fraction ([7]; 0.0001 µM): -0.0009
- increase in dead-cell fraction ([7]; 0.0003162 µM): -0.0013
- increase in dead-cell fraction ([7]; 0.001 µM): -0.0022
- increase in dead-cell fraction ([7]; 0.003162 µM): -0.0083
- increase in dead-cell fraction ([7]; 0.01 µM): 0.0073
- increase in dead-cell fraction ([7]; 0.03162 µM): 0
- increase in dead-cell fraction ([7]; 0.1 µM): 0.0006
- increase in dead-cell fraction ([7]; 0.3162 µM): 0.0316
- increase in dead-cell fraction ([7]; 1 µM): 0.0846
- increase in dead-cell fraction ([8]; 0.0001 µM): -0.0003
- increase in dead-cell fraction ([8]; 0.0003162 µM): -0.0027
- increase in dead-cell fraction ([8]; 0.001 µM): -0.0105
- increase in dead-cell fraction ([8]; 0.003162 µM): -0.0045
- increase in dead-cell fraction ([8]; 0.01 µM): -0.0053
- increase in dead-cell fraction ([8]; 0.03162 µM): -0.0002
- increase in dead-cell fraction ([8]; 0.1 µM): 0.06
- increase in dead-cell fraction ([8]; 0.3162 µM): 0.0438
- increase in dead-cell fraction ([8]; 1 µM): 0.104
- GR50, 72 h [9]: 0.00432 µM
- GR50, 72 h [10]: 1.91 µM
- GR50, 72 h [11]: 0.0304 µM
- GR50, 72 h [12]: 9.08 µM
- GR50, 72 h [13]: 4.82 µM
- GR50, 72 h [14]: 0.302 µM
- GR50, 72 h [15]: > 10 µM
- GR50, 72 h [16]: > 10 µM
- GR50, 72 h [17]: 0.649 µM
- GR50, 72 h [18]: > 1 µM
- GR50, 72 h [19]: 0.17 µM
